Consider 27 compounds from patent US7629375B2, “Cytoprotective compounds, pharmaceutical and cosmetic formulations, and methods” (Johnson & Johnson Consumer Companies, Inc., priority 2001, dated 2009).

Each structure is given as a SMILES string.

For this assay, the system named is neonatal cardiomyocytes. The experiment in a line: Myocyte calcium-contractility assay. The assay is classed as cell-based, rat. The following applies: anaerobic chamber 16 hours in DMEM 1 mM glucose, reoxygenation two hours. Here is the method: A. Isolation and Culture of Primary Neonate Myocytes.
The following materials are employed: • 10× Heart Dissection Solution (HDS) contains the following components (g/l) in tissue grade water: NaCl, 68; HEPES, 47.6; NaH2PO4, 2; Glucose, 10; KCl, 4; MgSO4, 1, pH adjusted to 7.4. Prior to filter sterilization of diluted (1×HDS) solution, 10 mg phenol red is added to each 500 milliliters of medium. • Transferrin and Bovine Insulin (available from Life Technologies) are resuspended at a concentration of 4 mg/ml in tissue culture grade water. • DMEM-F12—DMEM/F12, powder, 1:1 containing glutamine and pyridoxine hydrochloride (available from Life Technologies). To one liter equivalent of the powder is added 2.43 g of sodium bicarbonate and 10 ml of 100× Penicillin/Streptomycin in 950 ml of tissue culture grade water with stirring. The pH is adjusted to 7.2 with 1M HCl and volume adjusted to 1 liter. The solution is filter sterilized, followed by the addition of 2.5 ml of 4 mg/ml Transferrin, 250 μl 4 mg/ml Insulin and 30.7 mg of bromodeoxyuridine. • DMEM-F12-5% FBS is also prepared for pre-coating the tissue culture plates and initial suspension of the cardiomyocyte pellet. • Collagenase solution-57.1 mg of collagenase is resuspended in 140 ml 1×HDS.
Tissue culture ware is pre-coated with DMEM-F12-5% FBS by incubating […] per well of a 96-well plate and 0.5 ml per 24-well plate at 37° C.
Two-day old rat pups are removed from their mothers and placed in a sterile container. Pups are dipped quickly into 70% alcohol, then decapitated and the body placed in an empty sterile tissue culture dish. An incision is made starting at the neck and progressing towards the belly, cutting through the sternum. The heart is removed and placed in a tissue culture dishes containing 1×HDS. The atria are trimmed, and the remaining ventricles are placed into a separate tissue culture dish containing 1×HDS, where they are sectioned into 3-4 pieces each. Ventricles are then transferred to a sterile 250 ml glass flask and the 1×HDS is removed. Twenty milliliters of pre-warmed collagenase solution is added to the ventricles, followed by incubation at 37° C. with shaking. After 20 minutes, the collagenase solution is removed and replaced with 20 ml fresh pre-warmed collagenase. Incubation is continued for an additional 20 minutes. At the end of the incubation, any tissue chunks are allowed to settle prior to removing the collagenase (containing the isolated cardiomyocytes) from the disrupted tissue pieces. The isolated myocytes are added to a 50 ml Falcon tube containing 2 ml Fetal Bovine Serum (FBS). The remaining tissue pieces are subjected to a second digestion by adding 20 ml fresh pre-warmed collagenase and incubating as above for 20 minutes. This second digest is then centrifuged at 1000 rpm for 5 minutes (tabletop centrifuge). The resulting supernatant is discarded, and the cell pellet is suspended with 4 ml FBS. The resulting cell suspension is placed in the incubator at 37° C. This step is repeated several additional times to harvest additional material.
Percoll gradients are prepared by adding 2.5 ml of 10×HDS to 22.5 ml of Percoll (Life Technologies) with mixing (Percoll Stock). Top Gradient solution (11 ml Percoll Stock and 14 ml 1×HDS) and Bottom Gradient solution (13 ml Percoll Stock and 7 ml 1×HDS) are prepared. Four milliliters of the Top Gradient solution is transferred into 6×15 ml sterile Falcon tubes. Three milliliters of the Bottom Gradient solution is placed in each tube by inserting a serological pipette to the bottom of the tube and slowly adding the liquid.
All the digests (6) are pooled in one 50 ml Falcon tube and centrifuged on a tabletop centrifuge at 1000 rpm for 10 minutes. The supernatant is discarded, and the cell pellet is resuspended in 12 ml of 1×HDS. Two milliliters of the cell suspension is added to the top of each gradient. […]
As to `COCOc1cc(C=Cc2ccc([N+](=O)[O-])cc2)cc(CC=C(C)C)c1OCOC` [1,2-bis-methoxymethoxy-3-(3-methyl-but-2-enyl)-5-[2-(4-nitro-phenyl)-vinyl]-benzene], the “calcium transients (Fluo-4) in amounts indicative of ability guard against ischemic damage and maintain contractile function” value (shortened to “calcium transients”) is reported as “presence of calcium transients”.

With `COCOc1cc(C=Cc2ccc([N+](=O)[O-])cc2)cc(OCOC)c1CC=C(C)C` [1,3-bis-methoxymethoxy-2-(3-methyl-but-2-enyl)-5-[2-(4-nitro-phenyl)-vinyl]-benzene], the “calcium transients” value is “presence of calcium transients”.

Turning to `COCOc1cc(C=Cc2ccc([N+](=O)[O-])cc2)cc(OCOC)c1` [1,3-bis-methoxymethoxy-5-[2-(4-nitro-phenyl)-vinyl]-benzene], the “calcium transients” value is given as “presence of calcium transients”.

As for `COCOc1cc(C=Cc2ccc([N+](=O)[O-])cc2)c(CC=C(C)C)c(OCOC)c1` [1,5-bis-methoxymethoxy-2-(3-methyl-but-2-enyl)-3-[2-(4-nitro-phenyl)-vinyl]-benzene], the “calcium transients” value is reported as “presence of calcium transients”.

In the case of `O=C(O)C(=O)C[n+]1ccc(C=Cc2ccc(O)c(O)c2)cc1.[Br-]` [1-(2-Carboxy-2-oxo-ethyl)-4-[2-(3,4-dihydroxy-phenyl)-vinyl]-pyridinium; bromide], the “calcium transients” value is “presence of calcium transients”.

With `COCOc1c(C/C=C(\C)CCC=C(C)C)cc(C=Cc2ccc([N+](=O)[O-])cc2)cc1OC` [1-(3,7-dimethyl-octa-2,6-dienyl)-3-methoxy-2-methoxymethoxy-5-[2-(4-nitro-phenyl)-vinyl]-benzene], the “calcium transients” value was “presence of calcium transients”.

On to `COCOc1c(Br)cc(C=Cc2ccc([N+](=O)[O-])cc2)cc1OC` [1-bromo-3-methoxy-2-methoxymethoxy-5-[2-(4-nitro-phenyl)-vinyl]-benzene], for which the “calcium transients” value is reported as “presence of calcium transients”.

For `O=C(O)C[n+]1ccc(C=Cc2ccc(O)c(O)c2)cc1.[Br-]` [1-carboxymethyl-4-[2-(3,4-dihydroxy-phenyl)-vinyl]-pyridinium; bromide], the “calcium transients” value is on record as “presence of calcium transients”.

Regarding `COCOc1c(CC=C(C)C)cc(C=Cc2ccc([N+](=O)[O-])cc2)cc1OC` [1-methoxy-2-methoxymethoxy-3-(3-methyl-but-2-enyl)-5-[2-(4-nitro-phenyl)-vinyl]-benzene], the “calcium transients” value was “presence of calcium transients”.

Turning to `Cc1cc(C=Cc2ccc([N+](=O)[O-])cc2)cc(C)c1O` [2,6-dimethyl-4-[2-(4-nitro-phenyl)-vinyl]-phenol], the “calcium transients” value is “presence of calcium transients”.

For `COCOc1cc(C=Cc2ccc([N+](=O)[O-])cc2)cc(OCOC)c1CC=C(C)CCC=C(C)C` [2-(3,7-dimethyl-octa-2,6-dienyl)-1,3-bis-methoxymethoxy-5-[2-(4-nitro-phenyl)-vinyl]-benzene], the “calcium transients” value is recorded as “presence of calcium transients”.

Regarding `COCOc1ccc(C=Cc2nccs2)cc1OCOC` [2-[2-(3,4-bis-methoxymethoxy-phenyl)-vinyl]-thiazole], the “calcium transients” value is recorded as “presence of calcium transients”.

On to `O=C1c2ccccc2C(=O)c2cc(C=Cc3ccc(O)c(O)c3)ccc21` [2-[2-(3,4-dihydroxy-phenyl)-vinyl]-anthraquinone], for which the “calcium transients” value is given as “presence of calcium transients”.

Consider `COc1cc(C=Cc2ccc([N+](=O)[O-])cc2)cc(Br)c1O` [2-bromo-6-methoxy-4-[2-(4-nitro-phenyl)-vinyl]-phenol], for which the “calcium transients” value was “presence of calcium transients”.

On to `COCOc1ccc(C=CC=Cc2ccc([N+](=O)[O-])cc2)cc1OC` [2-methoxy-1-methoxymethoxy-4-[4-(4-nitro-phenyl)-buta-1,3-dienyl]-benzene], for which the “calcium transients” value is on record as “presence of calcium transients”.

On to `COc1cc(C=CC=Cc2ccc([N+](=O)[O-])cc2)ccc1O` [2-methoxy-4-[4-(4-nitro-phenyl)-buta-1,3-dienyl]-phenol], for which the “calcium transients” value is “presence of calcium transients”.

Turning to `COCOc1ccc(C=C2C(=O)Oc3ccccc32)cc1OCOC` [3-(3,4-bis-methoxymethoxy-benzylidene)-3H-benzofuran-2-one], the “calcium transients” value is reported as “presence of calcium transients”.

Consider `CC(C)(C)c1cc(C=C2C(=O)Oc3ccc(O)cc32)cc(C(C)(C)C)c1O` [3-(3,5-di-tert-butyl-4-hydroxy-benzylidene)-5-hydroxy-3H-benzofuran-2-one], for which the “calcium transients” value was “presence of calcium transients”.

Turning to `O=[N+]([O-])C=Cc1ccc(O)c(O)c1` [4-(2-nitro-vinyl)-benzene-1,2-diol], the “calcium transients” value is recorded as “presence of calcium transients”.

With `CC1=NN(c2ccccc2)C(=O)C1=Cc1ccc(O)c(O)c1` [4-(3,4-dihydroxy-benzylidene)-5-methyl-2-phenyl-2,4-dihydro-pyrazol-3-one], the “calcium transients” value is listed as “presence of calcium transients”.

Take `COC(=O)c1ccc(C=Cc2ccc3[nH]cnc3c2)cc1` [4-[2-(1H-benzoimidazol-5-yl)-vinyl]-benzoic acid methyl ester]: the “calcium transients” value is given as “presence of calcium transients”.

Take `COCOc1ccc(C=Cc2ccnc(-c3cc(C)ccn3)c2)cc1OCOC` [4-[2-(3,4-bis-methoxymethoxy-phenyl)-vinyl]-4′-methyl-[2,2′]bipyridinyl]: the “calcium transients” value is given as “presence of calcium transients”.

Consider `COCOc1ccc(/C=C/c2ccc(C(=O)N(CCO)CCO)cc2)cc1OCOC` [4-[2-(3,4-bis-methoxymethoxy-phenyl)-vinyl]-N,N-bis-(2-hydroxy-ethyl)-benzamide], for which the “calcium transients” value is reported as “presence of calcium transients”.

As for `COCOc1ccc(C=Cc2ccc(C(=O)OC)c(C(=O)OC)c2)cc1OCOC` [4-[2-(3,4-bis-methoxymethoxy-phenyl)-vinyl]-phthalic acid dimethyl ester], the “calcium transients” value is “presence of calcium transients”.

For `O=C(c1ccc(C=Cc2ccc(O)c(O)c2)cc1)N(CCO)CCO` [4-[2-(3,4-dihydroxy-phenyl)-vinyl]-N,N-bis-(2-hydroxy-ethyl)-benzamide], the “calcium transients” value is “presence of calcium transients”.

Turning to `O=C(O)c1ccc(C=Cc2ccc(O)c(O)c2)cc1` [4-[2-(3,4-dihydroxy-phenyl)-vinyl]-benzoic acid], the “calcium transients” value was “presence of calcium transients”.

Regarding `COC(=O)c1ccc(C=Cc2cc(C)c(O)c(C)c2)cc1` [4-[2-(4-hydroxy-3,5-dimethyl-phenyl)-vinyl]-benzoic acid methyl ester], the “calcium transients” value is “presence of calcium transients”.
